Laboratory results as given in ChEMBL document CHEMBL1139248 (Bioorg Med Chem Lett, 2009).

Assays:
[1] = target: T1, Calcitonin gene-related peptide type 1 receptor (Homo sapiens, UniProt O60894+Q16602); assay: biochemical; format: cell-based, HEK293
Description: Displacement of [125I]hCGRP from human CGRP receptor expressed in HEK293 cells coexpressing RAMP1

[2] = target: T1, Calcitonin gene-related peptide type 1 receptor; format: functional, cell-based, HEK293
[3] = target: T1, Calcitonin gene-related peptide type 1 receptor; assay: Antagonistic activity at human CGRP receptor expressed in HEK293 cells coexpressing RAMP1 assessed as inhibition of CGRP-induced cAMP production; format: functional, cell-based

T1 sequence (Q16602 whole entry, one chain of several): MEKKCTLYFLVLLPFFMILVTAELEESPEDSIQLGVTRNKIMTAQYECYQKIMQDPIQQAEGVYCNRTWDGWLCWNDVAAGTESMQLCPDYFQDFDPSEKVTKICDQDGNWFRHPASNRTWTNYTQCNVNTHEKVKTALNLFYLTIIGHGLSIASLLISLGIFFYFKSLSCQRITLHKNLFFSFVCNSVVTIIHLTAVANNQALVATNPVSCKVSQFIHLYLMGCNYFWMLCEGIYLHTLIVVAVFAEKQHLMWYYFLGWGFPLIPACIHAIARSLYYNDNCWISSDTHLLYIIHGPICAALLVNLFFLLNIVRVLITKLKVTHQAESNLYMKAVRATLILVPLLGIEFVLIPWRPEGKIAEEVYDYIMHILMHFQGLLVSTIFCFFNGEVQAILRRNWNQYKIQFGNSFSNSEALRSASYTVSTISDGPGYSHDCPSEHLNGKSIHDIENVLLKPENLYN

Ki [1] [nM]	IC50 [2] [nM]	IC50 [3] [nM]	SMILES
–	170	–	CN1C(=O)NC(=O)[C@]12Cc1ccc(NC(=O)Cn3c(=O)n(C4CCOC4)c4ccccc43)cc1C2 (some centres undefined)
1.2	27	5.2	O=C(Cn1c(=O)n(C2CCOC2)c2ccccc21)Nc1ccc2c(c1)C[C@]1(C2)C(=O)Nc2ncccc21 (some centres undefined)
0.87	24	2.5	O=C(Cn1c(=O)n(C2CCSCC2)c2ccccc21)Nc1ccc2c(c1)C[C@]1(C2)C(=O)Nc2ncccc21
1.7	39	5.7	O=C(CN1C(=O)C2(CCOCC2)c2ccccc21)Nc1ccc2c(c1)C[C@]1(C2)C(=O)Nc2ncccc21
96	–	–	O=C1CC2(Cc3ccc(NC(=O)Cn4c(=O)n(-c5ccccn5)c5ccccc54)cc3C2)C(=O)N1 (centres undefined)
2700	–	–	O=C(Cn1c(=O)n(-c2ccccn2)c2ccccc21)Nc1ccc2c(c1)CC1(CCCNC1=O)C2 (centres undefined)
230	–	–	O=C(Cn1c(=O)n(-c2ccccn2)c2ccccc21)Nc1ccc2c(c1)C[C@@]1(C2)NC(=O)NC1=O
270	–	–	O=C(Cn1c(=O)n(-c2ccccn2)c2ccccc21)Nc1ccc2c(c1)CC1(CCNC1=O)C2 (centres undefined)
2.3	420	8.6	O=C(Cn1c(=O)n(-c2ccccn2)c2ccccc21)Nc1ccc2c(c1)C[C@]1(C2)C(=O)Nc2ncccc21
130	–	–	O=C(Cn1c(=O)n(-c2ccccn2)c2ccccc21)Nc1ccc2c(c1)C[C@@]1(C2)N=C(c2cccnc2)NC1=O
3.7	–	–	O=C(Cn1c(=O)n(-c2ccccn2)c2ccccc21)Nc1ccc2c(c1)CC1(C2)C(=O)Nc2ncccc21 (centres undefined)
35	160	57	CN1C(=O)NC(=O)[C@]12Cc1ccc(NC(=O)CN3C(=O)C4(CCOCC4)c4ccccc43)cc1C2
2600	–	–	O=C(Cn1c(=O)n(-c2ccccn2)c2ccccc21)Nc1ccc2c(c1)C[C@@]1(C2)N=C(C2CC2)NC1=O
16	74	10	CN1C(=O)NC(=O)[C@]12Cc1ccc(NC(=O)Cn3c(=O)n(-c4ccncn4)c4ccccc43)cc1C2
0.04	0.62	0.28	O=C(Cn1c(=O)n2c3c(cccc31)NC(=O)C2)Nc1ccc2c(c1)C[C@]1(C2)C(=O)Nc2ncccc21
520	–	–	O=C(Cn1c(=O)n(-c2ccccn2)c2ccccc21)Nc1ccc2c(c1)CC1(C2)C(=O)Nc2ccccc21 (centres undefined)
0.21	4.1	0.87	Cc1cc(C)c2c(c1)n(CC(=O)Nc1ccc3c(c1)C[C@]1(C3)C(=O)Nc3ncccc31)c(=O)n2CC(=O)N(C)C
34	–	–	O=C(Cn1c(=O)n(-c2ccccn2)c2ccccc21)Nc1ccc2c(c1)C[C@@]1(C2)N=C(c2ccccc2)NC1=O
0.61	35	1.6	O=C(Cn1c(=O)n(-c2ccncn2)c2ccccc21)Nc1ccc2c(c1)C[C@]1(C2)C(=O)Nc2ncccc21
13	220	27	CN1C(=O)NC(=O)[C@]12Cc1ccc(NC(=O)Cn3c(=O)n(C4CCSCC4)c4ccccc43)cc1C2

SMILES	Ki [1] [nM]	IC50 [2] [nM]	IC50 [3] [nM]
O=C1CN(C2CCN(C(=O)N[C@@H]3N=C(c4ccccc4)c4ccccc4N(CC(F)(F)F)C3=O)CC2)C(=O)N1	520	–	–
O=C(N[C@@H]1N=C(c2ccccc2)c2ccccc2N(CC(F)(F)F)C1=O)N1CCC(n2c(=O)[nH]c3ccccc32)CC1	2200	–	–
O=C(N[C@@H]1N=C(c2ccccc2)c2ccccc2N(CC(F)(F)F)C1=O)N1CCC(n2c(=O)[nH]c3ncccc32)CC1	22	730	–
